Test results from patent publication US9932349B2 (priority 2000, dated 2018).
Like-named read-outs stand apart in the source and are kept apart here.

Assays:
δ opioid receptor = molecular target: T1, δ opioid receptor (Cavia porcellus, UniProt A0A286XTF2); experiment: biochemical; assay type: binding, guinea pig
T1 construct: determined in guinea pig brain cells; from tissue; host or cells: guinea pig brain

κ opioid receptor = molecular target: T2, κ opioid receptor (Cavia porcellus, UniProt P41144); experiment: biochemical; assay type: binding, guinea pig
T2 construct: determined in guinea pig brain cells; from tissue; host or cells: guinea pig brain
T2 sequence (P41144 whole entry): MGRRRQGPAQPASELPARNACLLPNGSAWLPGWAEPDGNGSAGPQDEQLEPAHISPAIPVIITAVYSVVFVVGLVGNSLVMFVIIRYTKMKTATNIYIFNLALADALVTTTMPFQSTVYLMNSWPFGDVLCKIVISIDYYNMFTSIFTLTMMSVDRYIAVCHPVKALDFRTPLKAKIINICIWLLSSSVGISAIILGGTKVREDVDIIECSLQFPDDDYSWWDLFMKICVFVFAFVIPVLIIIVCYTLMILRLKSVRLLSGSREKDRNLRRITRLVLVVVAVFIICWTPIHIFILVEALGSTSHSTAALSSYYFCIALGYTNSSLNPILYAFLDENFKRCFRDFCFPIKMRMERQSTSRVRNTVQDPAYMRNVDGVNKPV

T1 sequence (A0A286XTF2 1-366): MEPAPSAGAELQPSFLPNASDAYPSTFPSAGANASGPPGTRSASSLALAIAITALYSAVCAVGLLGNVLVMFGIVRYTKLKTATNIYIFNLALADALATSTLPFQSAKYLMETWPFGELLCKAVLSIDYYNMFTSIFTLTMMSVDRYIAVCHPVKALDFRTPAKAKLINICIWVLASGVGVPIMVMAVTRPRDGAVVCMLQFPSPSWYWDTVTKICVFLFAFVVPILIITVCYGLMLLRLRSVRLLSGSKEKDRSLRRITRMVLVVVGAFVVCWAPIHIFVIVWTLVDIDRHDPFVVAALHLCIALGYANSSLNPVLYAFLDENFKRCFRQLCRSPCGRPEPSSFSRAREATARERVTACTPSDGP

SMILES	Ki (δ opioid receptor; Ki [3H] Naltrindole (δ))	Ki (κ opioid receptor; Ki [3H] U69,593 (κ))	further results
CC1C2Cc3ccc(CN)cc3C1(C)CCN2CC1CC1 (mixture of isomers) [Example 15, (±)-[3-(Cyclopropylmethyl)-1,2,3,4,5,6,-hexahydro-cis-6,11-dimethyl-2,6-methano-3-benzazocin-8-yl]-methylamine]	390 ± 47 nM	17 ± 2.9 nM	
CC1C2Cc3ccc(NC=O)cc3C1(C)CCN2CC1CC1 (mixture of isomers) [Example 19, (±)-N-[3-(Cyclopropylmethyl)-1,2,3,4,5,6,-hexahydro-cis-6,11-dimethyl-2,6-methano-3-benzazocin-8-yl]-formamide]			Ki (δ opioid receptor; read-out: Ki [3H] Naltrindole (δ)): 37 ± 3.9 nM; Ki (κ opioid receptor; read-out: Ki [3H] U69,593 (κ)): 0.85 ± 0.08 nM
CC[C@@]12CCN(CC3CC3)C(C(=O)c3ccc(O)cc31)C2C (mixture of isomers) [(±)-EKC, Ethylketocyclazocine, reference compound]			Ki (δ opioid receptor; [3H] Naltrindole (δ)): 3.4 ± 0.41 nM
C[C@H]1C2Cc3ccc(C#N)cc3[C@@]1(C)CCN2CC1CC1 (racemic) [Example 1, (±)-3-(Cyclopropylmethyl)-1,2,3,4,5,6-hexahydro-cis-6,11-dimethyl-2,6-methano-3-benzazocin-8-carbonitrile]	2700 ± 1400 nM	71 ± 13 nM	
C[C@H]1[C@H]2Cc3ccc(C(=O)O)cc3[C@]1(C)CCN2CC1CC1 (racemic) [Example 2]	320 ± 14 nM	31 ± 0.87 nM	
COC(=O)c1ccc2c(c1)[C@@]1(C)CCN(CC3CC3)C(C2)[C@@H]1C (racemic) [Example 3, (±)-3-(Cyclopropylmethyl)-1,2,3,4,5,6,-hexahydro-cis-6,11-dimethyl-2,6-methano-3-benzazocin-8-carboxylic acid methyl ester]	59 ± 2.1 nM	2 ± 0.21 nM	
C[C@H]1C2Cc3ccc(C(N)=S)cc3[C@@]1(C)CCN2CC1CC1 (racemic) [Example 5, (±)-3-(Cyclopropylmethyl)-1,2,3,4,5,6-hexahydro-cis-6,11-dimethyl-2,6-methano-3-benzazocin-8-thiocarboxamide]	4 ± 0.48 nM	0.67 ± 0.01 nM	
C[C@H]1[C@H]2Cc3ccc(C(=O)NO)cc3[C@]1(C)CCN2CC1CC1 (racemic) [Example 6]	210 ± 40 nM	6.9 ± 0.61 nM	
COc1ccc(CNC(=O)c2ccc3c(c2)[C@]2(C)CCN(CC4CC4)[C@H](C3)[C@@H]2C)cc1 (racemic) [Example 10]	150 ± 17 nM	110 ± 3.1 nM	
C[C@H]1[C@H]2Cc3ccc(C(=O)NCCCN(C)C)cc3[C@]1(C)CCN2CC1CC1 (racemic) [Example 12]	3000 ± 230 nM	310 ± 64 nM	
CC1[C@@H]2Cc3ccc(C(=N)NO)cc3[C@@]1(C)CCN2CC1CC1 (mixture of isomers) [Example 14, (±)-3-(Cyclopropylmethyl)-1,2,3,4,5,6-hexahydro-N-hydroxy-cis-6,11-dimethyl-2,6-methano-3-benzazocin-8-carboxamidine]	16 ± 0.67 nM	0.9 ± 0.15 nM	
C[C@H]1C2Cc3ccc(CO)cc3[C@@]1(C)CCN2CC1CC1 (racemic) [Example 16, (±)-[3-(Cyclopropylmethyl)-1,2,3,4,5,6,-hexahydro-cis-6,11-dimethyl-2,6-methano-3-benzazocin-8-yl]-methanol]	210 ± 29 nM	7.6 ± 0.8 nM	
C[C@H]1[C@H]2Cc3ccc(NS(C)(=O)=O)cc3[C@]1(C)CCN2CC1CC1 (racemic) [Example 21]	780 ± 170 nM	21 ± 1.5 nM	
C[C@H]1[C@H]2C(=O)c3ccc(C(N)=O)cc3[C@]1(C)CCN2CC1CC1 (relative stereo) [Example 23]			Ki (δ opioid receptor; [3H] Naltrindole (δ)): 20 ± 2.3 nM; Ki (κ opioid receptor; [3H] U69,593 (κ)): 1.8 ± 0.1 nM
CC1C2Cc3ccc(C(N)=O)cc3C1(C)CCN2CC1CC1 (single isomer, unassigned) [Example 4a]	2.6 ± 0.6 nM		
CC1C2Cc3ccc(C(N)=O)cc3C1(C)CCN2CC1CC1 (single isomer, unassigned) [Example 4b]	570 ± 50 nM		
CC1C2Cc3ccc(NC=O)cc3C1(C)CCN2CC1CC1 (single isomer, unassigned) [Example 19a]	9.8 ± 0.28 nM	0.49 ± 0.012 nM	
CC1C2Cc3ccc(NC=O)cc3C1(C)CCN2CC1CC1 (single isomer, unassigned) [Example 19b]	> 10000 nM	900 ± 8.7 nM	
CC1C2Cc3ccc(O)cc3C1(C)CCN2CC1CCCO1 (single isomer, unassigned) [Example 25, reference compound]			Ki (δ opioid receptor; [3H] Naltrindole (δ)): 3.6 ± 0.4 nM; Ki (κ opioid receptor; [3H] U69,593 (κ)): 0.09 ± 0.01 nM

SMILES	Ki (δ opioid receptor; Ki [3H] Naltrindole (δ))	Ki (κ opioid receptor; Ki [3H] U69,593 (κ))	further results
CC1C2Cc3ccc(C(N)=O)cc3C1(C)CCN2CC1CCCO1 (single isomer, unassigned) [Example 26]			Ki (δ opioid receptor; [3H] Naltrindole (δ)): 2 ± 0.15 nM; Ki (κ opioid receptor; [3H] U69,593 (κ)): 0.089 ± 0.004 nM
CC1C2Cc3ccc(O)cc3C1(C)CCN2CC1CCCO1 (single isomer, unassigned) [Example 27, reference compound]			Ki (δ opioid receptor; [3H] Naltrindole (δ)): 67 ± 4.3 nM; Ki (κ opioid receptor; [3H] U69,593 (κ)): 1.5 ± 0.07 nM
CC1C2Cc3ccc(C(N)=O)cc3C1(C)CCN2CC1CCCO1 (single isomer, unassigned) [Example 28]			Ki (δ opioid receptor; [3H] Naltrindole (δ)): 34 ± 0.1 nM; Ki (κ opioid receptor; [3H] U69,593 (κ)): 2.8 ± 0.24 nM
C[C@H]1[C@H]2Cc3ccc(O)cc3[C@]1(C)CCN2CC1CC1 [(+)-Cyclazocine, Cyclazocine, reference compound]			Ki (δ opioid receptor; read-out: [3H] Naltrindole (δ)): 1100 ± 63 nM; Ki (κ opioid receptor; read-out: [3H]U69,593 (κ)): 76 ± 8.2 nM
C[C@H]1[C@H]2Cc3ccc(O)cc3[C@]1(C)CCN2CC1CC1 [(−)-Cyclazocine, Cyclazocine, reference compound]			Ki (δ opioid receptor; read-out: [3H] Naltrindole (δ)): 0.58 ± 0.06 nM; Ki (κ opioid receptor; read-out: [3H]U69,593 (κ)): 0.052 ± 0.009 nM
CC1C2Cc3ccc(C(=O)NN)cc3C1(C)CCN2CC1CC1 (stereo not drawn) [Example 7]		19 ± 1.4 nM	
CNC(=O)c1ccc2c(c1)C1(C)CCN(CC3CC3)C(C2)C1C (stereo not drawn) [Example 8]	63 ± 4.1 nM	2.6 ± 0.19 nM	
CC1C2Cc3ccc(C(=O)NCc4ccccc4)cc3C1(C)CCN2CC1CC1 (stereo not drawn) [Example 9]	140 ± 18 nM	78 ± 7.6 nM	
CC1C2Cc3ccc(C(=O)NCCN(C)C)cc3C1(C)CCN2CC1CC1 (stereo not drawn) [Example 11]	350 ± 51 nM	44 ± 11 nM	
CC1C2Cc3ccc(C4=NCCN4)cc3C1(C)CCN2CC1CC1 (stereo not drawn) [Example 13]	55 ± 5.1 nM	11 ± 0.69 nM	
CC1C2Cc3ccc(C(=O)c4ccccc4)cc3C1(C)CCN2CC1CC1 (stereo not drawn) [Example 17]	490 ± 43 nM	19 ± 2.6 nM	
CC1C2Cc3ccc(C(=NO)c4ccccc4)cc3C1(C)CCN2CC1CC1 (stereo not drawn) [Example 18]	180 ± 15 nM	7.2 ± 0.4 nM	
CC1C2Cc3ccc(NC=S)cc3C1(C)CCN2CC1CC1 (stereo not drawn) [Example 20]	16 ± 0.3 nM	0.63 ± 0.15 nM	
CC1C2C(=O)c3ccc(C#N)cc3C1(C)CCN2CC1CC1 (stereo not drawn) [Example 22]			Ki (δ opioid receptor; [3H] Naltrindole (δ)): 3400 ± 410 nM; Ki (κ opioid receptor; [3H] U69,593 (κ)): 59 ± 0.77 nM
CCC12CCN(CC3CC3)C(C(=O)c3ccc(C(N)=O)cc31)C2C (stereo not drawn) [Example 24]			Ki (δ opioid receptor; read-out: [3H] Naltrindole (δ)): 9.8 ± 0.5 nM; Ki (κ opioid receptor; read-out: [3H] U69,593 (κ)): 0.7 ± 0.08 nM
C[C@H]1[C@H]2Cc3ccc(CN)cc3[C@]1(C)CCN2C[C@@H]1CCCO1 [Example 29]			Ki (δ opioid receptor; [3H] Naltrindole (δ)): 300 ± 27 nM; Ki (κ opioid receptor; [3H] U69,593 (κ)): 18 ± 1.9 nM
CCC12CCN(CC3CC3)C(C(=O)c3ccc(NC=O)cc31)C2C (stereo not drawn) [Example 40]			Ki (δ opioid receptor; read-out: [3H] Naltrindole (δ)): 52 ± 3.4 nM; Ki (κ opioid receptor; read-out: [3H] U69,593 (κ)): 1.2 ± 0.11 nM
Oc1ccc2c3c1O[C@H]1c4[nH]c5ccccc5c4C[C@@]4(O)[C@@H](C2)N(CC2CC2)CC[C@]314 [naltrindole (3-OH), Naltrindole, reference compound]			Ki (κ opioid receptor; [3H] U69,593 (κ)): 4.6 ± 0.23 nM
